Data as given in patent US9539252B2, “Piperazine-substituted benzothiophene derivatives as antipsychotic agents” (OTSUKA PHARMACEUTICAL CO., LTD., priority 2011, dated 2017).

Assay: Solubility in oil (sesame oil, benzyl benzoate), visual observation
Conditions: oil or lipid, thermodynamic from solid

In the case of `CCCCCCCCCCCCCCCCOC(=O)OCN1C(=O)CCc2ccc(OCCCCN3CCN(c4cccc5sccc45)CC3)cc21` [Example 144, carbonic acid 7-[4-(4-benzo[b]thiophen-4-ylpiperazin-1-yl)butoxy]-2-oxo-3,4-dihydro-2H-quinolin-1-ylmethyl ester hexadecyl ester], the solubility (benzyl benzoate) is reported as > 100 mg/mL and the solubility (sesame oil) is reported as > 100 mg/mL.
For `CCCCCCCOC(=O)OCN1C(=O)CCc2ccc(OCCCCN3CCN(c4cccc5sccc45)CC3)cc21` [Example 145, carbonic acid 7-[4-(4-benzo[b]thiophen-4-ylpiperazin-1-yl)butoxy]-2-oxo-3,4-dihydro-2H-quinolin-1-ylmethyl ester heptyl ester], the solubility (benzyl benzoate) was > 100 mg/mL.
For `O=C(OCn1c(=O)ccc2ccc(OCCCCN3CCN(c4cccc5sccc45)CC3)cc21)OC1CCCCC1` [Example 146, carbonic acid 7-[4-(4-benzo[b]thiophen-4-ylpiperazin-1-yl)butoxy]-2-oxo-2H-quinolin-1-ylmethyl ester cyclohexyl ester], the solubility (benzyl benzoate) was > 100 mg/mL.
In the case of `O=C(OCN1C(=O)CCc2ccc(OCCCCN3CCN(c4cccc5sccc45)CC3)cc21)OCC(F)(F)F` [Example 147, carbonic acid 7-[4-(4-benzo[b]thiophen-4-ylpiperazin-1-yl)butoxy]-2-oxo-3,4-dihydro-2H-quinolin-1-ylmethyl ester 2,2,2-trifluoro-ethyl ester], the solubility (benzyl benzoate) is reported as > 100 mg/mL.
For `CC(C)(C)OC(=O)CC(=O)OCn1c(=O)ccc2ccc(OCCCCN3CCN(c4cccc5sccc45)CC3)cc21` [Example 148, malonic acid 7-[4-(4-benzo[b]thiophen-4-ylpiperazin-1-yl)butoxy]-2-oxo-2H-quinolin-1-ylmethyl ester tert-butyl ester], the solubility (benzyl benzoate) was > 100 mg/mL.
In the case of `CCCCCCCCOC(=O)OCN1C(=O)CCc2ccc(OCCCCN3CCN(c4cccc5sccc45)CC3)cc21` [Example 149, carbonic acid 7-[4-(4-benzo[b]thiophen-4-ylpiperazin-1-yl)butoxy]-2-oxo-3,4-dihydro-2H-quinolin-1-ylmethyl ester octyl ester], the solubility (benzyl benzoate) is reported as > 100 mg/mL and the solubility (sesame oil) is reported as > 100 mg/mL.
In the case of `O=C(OCN1C(=O)CCc2ccc(OCCCCN3CCN(c4cccc5sccc45)CC3)cc21)OC1CCCCC1` [Example 150, carbonic acid 7-[4-(4-benzo[b]thiophen-4-ylpiperazin-1-yl)butoxy]-2-oxo-3,4-dihydro-2H-quinolin-1-ylmethyl ester cyclohexyl ester], the solubility (benzyl benzoate) is reported as > 100 mg/mL and the solubility (sesame oil) is reported as > 100 mg/mL.
For `CCCCOC(=O)OCN1C(=O)CCc2ccc(OCCCCN3CCN(c4cccc5sccc45)CC3)cc21` [Example 151, carbonic acid 7-[4-(4-benzo[b]thiophen-4-ylpiperazin-1-yl)butoxy]-2-oxo-3,4-dihydro-2H-quinolin-1-ylmethyl ester butyl ester], the solubility (benzyl benzoate) was > 100 mg/mL.
In the case of `CN(Cc1ccccn1)C(=O)OCn1c(=O)ccc2ccc(OCCCCN3CCN(c4cccc5sccc45)CC3)cc21` [Example 152, N-methyl-N-pyridin-2-ylmethylcarbamic acid 7-[4-(4-benzo[b]thiophen-4-ylpiperazin-1-yl)butoxy]-2-oxo-2H-quinolin-1-ylmethyl ester], the solubility (benzyl benzoate) is reported as > 100 mg/mL.
For `O=C(OCn1c(=O)ccc2ccc(OCCCCN3CCN(c4cccc5sccc45)CC3)cc21)N1CCSCC1` [Example 153, thiomorpholine-4-carboxylic acid 7-[4-(4-benzo[b]thiophen-4-ylpiperazin-1-yl)butoxy]-2-oxo-2H-quinolin-1-ylmethyl ester], the solubility (benzyl benzoate) was > 100 mg/mL.
For `CCCCCCCCCCCC(=O)OCN1C(=O)CC(C)(C)c2ccc(OCCCCN3CCN(c4cccc5sccc45)CC3)cc21` [Example 154, dodecanoic acid 7-[4-(4-benzo[b]thiophen-4-ylpiperazin-1-yl)butoxy]-4,4-dimethyl-2-oxo-3,4-dihydro-2H-quinolin-1-ylmethyl ester], the solubility (benzyl benzoate) was > 100 mg/mL and the solubility (sesame oil) was > 100 mg/mL.
